# Data from PubChem BioAssay (NCI).
#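 How tested: cells in 96-well plates exposed to compound for 48 hours at five concentrations. GI50 marks 50% less growth. TGI: total growth inhibition.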
# Key:
# Assay in all cases: NCI anticancer screen, dose series, 48 h
# SNB-19 CNS = system: SNB-19 CNS
# MDA-MB-231 breast = system: MDA-MB-231 breast
# SK-MEL-2 melanoma = system: SK-MEL-2 melanoma
# SF-295 CNS = system: SF-295 CNS
# HT29 colon = system: HT29 colon
# IGROV1 ovarian = system: IGROV1 ovarian
# SF-268 CNS = system: SF-268 CNS
# A549 NSCLC = system: A549 NSCLC
# HOP-92 NSCLC = system: HOP-92 NSCLC
# MOLT-4 leukemia = system: MOLT-4 leukemia
Compound,GI50 (SNB-19 CNS) [µM],TGI (SNB-19 CNS) [µM],GI50 (MDA-MB-231 breast) [µM],TGI (MDA-MB-231 breast) [µM],GI50 (SK-MEL-2 melanoma) [µM],TGI (SK-MEL-2 melanoma) [µM],GI50 (SF-295 CNS) [µM],TGI (SF-295 CNS) [µM],GI50 (HT29 colon) [µM],TGI (HT29 colon) [µM],GI50 (IGROV1 ovarian) [µM],TGI (IGROV1 ovarian) [µM],GI50 (SF-268 CNS) [µM],TGI (SF-268 CNS) [µM],GI50 (A549 NSCLC) [µM],TGI (A549 NSCLC) [µM],TGI (HOP-92 NSCLC) [µM],TGI (MOLT-4 leukemia) [µM],GI50 (MOLT-4 leukemia) [µM],GI50 (HOP-92 NSCLC) [µM]
O=c1c2ccccc2c(Br)c(Br)c2ccccc12,45.4,> 100,19.9,50.7,13.3,32.5,17.1,36,3.04,8.13,2.37,5.37,8.89,25,20.6,73,,,,
Nc1nc2sc3ccccc3c(=O)n2n1,,> 100,,,,> 100,,> 100,,> 100,,> 100,,> 100,,> 100,> 100,> 100,,
Cc1oc2c(C)c3oc(=O)cc(C)c3cc2c1CNC(=O)[C@@H]1OCCOCCOCCOCCOCCOC1C(=O)O (stereo not given in full),,> 100,,,,,,> 100,,> 100,,> 100,,> 100,,> 100,> 100,> 100,,
CN(C)CCN(C)CC1COC(C)(C)O1 (stereo not given),,> 100,,,,> 100,,> 100,,> 100,,> 100,,> 100,,> 100,> 100,> 100,,
COc1cccc(C2C3=C(COC3=O)N(CCO)c3cc(OC)ccc32)c1 (stereo not given),0.221,> 100,0.362,4.91,0.536,,0.0422,> 100,0.0743,2.9,0.305,> 100,0.181,> 100,0.12,> 100,,> 100,0.44,
CSc1cccc(-n2c3nc(=O)n(C)c(=O)c-3nc3ccccc32)c1,,65.9,,,,31.1,,23.6,,15.9,,36,,61.9,,16.2,25.3,32.3,,
COc1ccc(NC(=O)CC(=O)N2N=C(N(CCC#N)c3ccccc3Cl)CC2c2ccccc2)cc1 (stereo not given),,> 100,,,,> 100,,> 100,,> 100,,> 100,,> 100,,> 100,> 100,> 100,,
COC(=O)C1=C(C)NC(C)=C(C(=O)OC)C1/C=C(\Cl)c1ccc(Cl)c(Cl)c1,18.8,41.6,11.9,25.3,,,6.26,21.6,4.51,18.5,15.5,28.9,13.1,28.4,11.9,24.4,,27.6,3.69,
COc1ccc2c(c1)C(=O)N1CCOC1C2C(=O)O (stereo not given),,> 100,,,,,,29.8,,> 100,,> 100,,> 100,,> 100,> 100,> 100,,
NC(=O)C#CC#CC#CCO,,29.6,,,,4.9,,11.6,,4.04,,7.4,,,,16.5,3.83,2.67,,
COC(=O)C1CCC(Nc2ccc(C)cc2C)=N1 (stereo not given),,> 100,,,,> 100,,> 100,,> 100,,> 100,,> 100,,> 100,> 100,> 100,,
C=C(C)C1Cc2c(cc(OC)c3c(=O)c4cccc(O)c4oc23)O1 (stereo not given),,98.4,,47.6,,42.4,,41.6,,> 100,,33.1,,43.4,,88.8,,> 100,,
CS(=O)(=O)OCC1OC(n2ccc(NC(=O)c3ccccc3)nc2=O)CC1OS(C)(=O)=O (stereo not given),,> 100,,> 100,,> 100,,> 100,,> 100,,> 100,,> 100,,> 100,,> 100,,
N#CC(C(=O)/C(=N/NC(=O)c1ccccc1O)C(C#N)c1ccccc1)c1ccccc1 (stereo not given),,,,,,> 100,,> 100,,> 100,,> 100,,> 100,,> 100,> 100,,,
CCCCCCCC(=O)NCC(O)CNC(=O)CCCCCCC,,> 100,,,,,,> 100,,> 100,,> 100,,> 100,,> 100,> 100,> 100,,
N#CC(/C(=N/NC(=O)C(=O)NN)C(=O)Nc1nc([N+](=O)[O-])cs1)c1ccc(Cl)cc1 (stereo not given),,> 100,,,,> 100,,> 100,,> 100,,> 100,,> 100,,> 100,> 100,> 100,,
CC1OC(n2ccc(=O)[nH]c2=O)C=C(OC(=O)c2ccccc2)C1=O (stereo not given),,> 100,,,,,,> 100,,> 100,,> 100,,,,> 100,99.6,> 100,,
[Cl][Sn]([Cl])([c]1ccccc1)[c]1ccccc1,14.6,27.7,,,4,14.1,17,33.5,16.1,30.5,19.3,38.3,13.2,30.4,19.8,39.2,6.36,36.9,5.25,3.02
CC(C)[C@H]1CC[C@H]2[C@@H](CC[C@H]3[C@](C)(CN)CCC[C@]23C)C1,3.19,12.9,2.05,4.51,2.57,5.99,1.83,3.87,1.65,3.3,,,2.36,6.04,2.18,4.23,8.12,5.2,2.21,1.22
Cc1ccccc1C1=[N+]([O-])c2ccccc2C1=O,,> 100,,,,21.2,,44.9,,27.7,,34.9,,36.8,,,62.5,49.2,,

Compound,GI50 (SNB-19 CNS) [µM],TGI (SNB-19 CNS) [µM],GI50 (MDA-MB-231 breast) [µM],TGI (MDA-MB-231 breast) [µM],GI50 (SK-MEL-2 melanoma) [µM],TGI (SK-MEL-2 melanoma) [µM],GI50 (SF-295 CNS) [µM],TGI (SF-295 CNS) [µM],GI50 (HT29 colon) [µM],TGI (HT29 colon) [µM],GI50 (IGROV1 ovarian) [µM],TGI (IGROV1 ovarian) [µM],GI50 (SF-268 CNS) [µM],TGI (SF-268 CNS) [µM],GI50 (A549 NSCLC) [µM],TGI (A549 NSCLC) [µM],TGI (HOP-92 NSCLC) [µM],TGI (MOLT-4 leukemia) [µM],GI50 (MOLT-4 leukemia) [µM],GI50 (HOP-92 NSCLC) [µM]
CCOc1ccc(NC(=O)C2=C(C)NC(C)=C(C(=O)Nc3ccc(OCC)cc3)C2c2ccc(O)c(OC)c2)cc1,,> 100,,,,> 100,,> 100,,> 100,,> 100,,> 100,,> 100,53.9,> 100,,
Nc1nc(NCCO)c(N=O)c(=O)[nH]1,,,,,,> 100,,> 100,,> 100,,> 100,,> 100,,> 100,> 100,,,
Cc1ccccc1C1OC(=O)c2ccccc21 (stereo not given),,> 100,,,,> 100,,,,> 100,,> 100,,> 100,,> 100,,> 100,,
CCOC(=O)/C(=N\OC)C(O)C(F)(F)F (stereo not given),,> 100,,> 100,,> 100,,> 100,,> 100,,> 100,,> 100,,> 100,,> 100,,
O=C(C=Nc1ccccc1C(=O)[O-])c1cccs1.O=C(C=Nc1ccccc1C(=O)[O-])c1cccs1.[Co+2],,> 100,,,,> 100,,> 100,,> 100,,> 100,,> 100,,> 100,> 100,> 100,,
CCCOC(=O)C1CCC(=O)N1C(=O)C(C)Cl (stereo not given),,> 100,,,,> 100,,> 100,,> 100,,> 100,,> 100,,> 100,> 100,> 100,,
Cc1cc(NCCCNc2ccnc3cc(Cl)ccc23)nc(N2CCN(C)CC2)n1,12.5,49.5,2.07,15.8,,,3.51,12.3,1.33,13.5,8.14,39.9,6.74,26.3,3.66,16.5,37.4,15.8,2.46,15.2
c1ccc2c(c1)sc1c3cnccc3ccc21,,> 100,,> 100,,> 100,,> 100,,> 100,,> 100,,> 100,,> 100,,> 100,,
CCOC(=O)c1c(-c2ccccc2)oc(-c2ccccc2)c1C(=O)OCC,,> 100,,,,> 100,,> 100,,> 100,,> 100,,> 100,,> 100,> 100,> 100,,
CC(=O)N1c2ccccc2C2=CC3C4C(=O)N(c5ccccc5)C(=O)C4C21C1C(=O)N(c2ccccc2)C(=O)C31 (stereo not given),,> 100,,,,56.2,,39.1,,> 100,,> 100,,> 100,,> 100,> 100,> 100,,
CC[O-].CC[O-].O=C([CH-]C(=O)c1cccnc1)c1ccccc1.O=C([CH-]C(=O)c1cccnc1)c1ccccc1.[Ti+4],50,> 100,,,> 100,> 100,77.6,> 100,57.1,> 100,> 100,> 100,88.3,> 100,> 100,> 100,,> 100,13.6,
COC(c1cccc(C(O)(C(F)(F)F)C(F)(F)F)c1)(C(F)(F)F)C(F)(F)F,,34.5,,,,33.7,,30.2,,31.6,,35.3,,38.5,,31.2,,40.5,,
O=C(Nc1ccccc1)c1nn(-c2cc(S(=O)(=O)O)c([N+](=O)[O-])cc2Cl)[n+](-c2cc(S(=O)(=O)[O-])c([N+](=O)[O-])cc2Cl)n1,,> 100,,94,,> 100,,> 100,,> 100,,> 100,,> 100,,> 100,,> 100,,
O=C(O)C1=CCCc2ccc3ccccc3c21,,> 100,,,,> 100,,> 100,,> 100,,> 100,,> 100,,> 100,> 100,> 100,,
O=C(CCC(=O)Nc1cccc(Cl)c1)CC(=O)c1ccc(F)cc1,,> 100,,,,> 100,,61.2,,> 100,,,,> 100,,> 100,> 100,> 100,,
Cn1c2c(c3ccccc31)CCN(CCN1CCN(c3ccccc3)CC1)C2=O,,,,,,,,> 100,,> 100,,> 100,,> 100,,> 100,96.5,> 100,,
O=C1C2C(C(=O)[N]1[Hg][c]1cccs1)C1(Cl)C(Cl)=C(Cl)C2(Cl)C1(Cl)Cl (stereo not given),1.72,3.4,,,1.56,3.23,3.11,8.53,0.649,3.57,1.29,3.52,1.41,2.84,5.94,16.7,3.03,5.01,0.371,1.58
CCN(CC)CCCn1cnc2ncccc2c1=O,,> 100,,,,> 100,,> 100,,> 100,,> 100,,> 100,,> 100,> 100,,,
C/C(=N\NC(N)=S)c1cc(C)c(C)cc1C,,,,,,> 100,,> 100,,47.6,,> 100,,> 100,,> 100,> 100,84.5,,
Cn1cc(C2=C(c3cn(CCO)c4ccccc34)C(=O)NC2=O)c2ccccc21,7.09,> 25,5.98,> 22.4,1.65,8.37,1.18,7.58,1.5,> 14.9,4.93,14.9,4.19,15.4,3.05,> 25,,16.8,1.36,
